Test results: patent publication US12077503B2, “Substituted cyclic amides and their use as herbicides” (FMC CORPORATION, priority 2015, dated 2024)

Columns and labels:
Assay type in all cases: in vivo
[1] = test system: ryegrass, Italian (Italian ryegrass, Lolium multiflorum); assay: Test A preemergence; conditions: Lolium multiflorum, pre-emergence, 240 h, 0 to 100 scale where 0 is no effect and 100 is complete control, read-out: Ryegrass, Italian plant response rating
Method in brief: (§1)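 Preemergence soil spray on seeded pots or post-emergence spray on 1–2 leaf plants, in loam–sand blend. Greenhouse ~10 d. Visual rating 0–100 against untreated plants.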

[2] = test system: pigweed (Amaranthus retroflexus); assay: Test A preemergence; conditions: Amaranthus retroflexus, pre-emergence, 240 h, 0 to 100 scale where 0 is no effect and 100 is complete control, read-out: Pigweed plant response rating
Kochia (Kochia scoparia) [3] = assay: Test A preemergence; conditions: Bassia scoparia, pre-emergence, 240 h, 0 to 100 scale where 0 is no effect and 100 is complete control, read-out: Kochia plant response rating
Method in brief: as §1

[4] = test system: ragweed (common ragweed, Ambrosia elatior); assay: Test A preemergence; conditions: Ambrosia artemisiifolia, pre-emergence, 240 h, 0 to 100 scale where 0 is no effect and 100 is complete control, read-out: Ragweed plant response rating
Method in brief: as §1

[5] = test system: giant foxtail (Setaria faberii); assay: Test A preemergence; conditions: Setaria faberi, pre-emergence, 240 h, 0 to 100 scale where 0 is no effect and 100 is complete control, read-out: Foxtail, Giant plant response rating
Method in brief: as §1

[6] = test system: barnyardgrass (Echinochloa crus-galli); assay: Test A preemergence; conditions: Echinochloa crus-galli, pre-emergence, 240 h, 0 to 100 scale where 0 is no effect and 100 is complete control, read-out: Barnyardgrass plant response rating
Method in brief: as §1

[7] = test system: barnyardgrass (Echinochloa crus-galli); assay: Test B flooded paddy test; conditions: Echinochloa crus-galli, 250 g ai/ha, Flood; 0 to 100 scale where 0 is no effect and 100 is complete control; read-out: Barnyardgrass plant response rating
Method in brief: (§2)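 Response scored visually against untreated controls, 0 = no effect and 100 = complete control, 13–15 d after treatment in the greenhouse. Compounds added to paddy water held 3 cm above soil surface. Treatment given at 2-leaf stage.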

[8] = test system: ducksalad (Heteranthera limosa); assay: Test B flooded paddy test; conditions: Heteranthera limosa, 250 g ai/ha, Flood; 0 to 100 scale where 0 is no effect and 100 is complete control; read-out: Ducksalad plant response rating
Method in brief: as §2

rice (Oryra sativa) = assay: Test B flooded paddy test; conditions: Oryza sativa, 250 g ai/ha, Flood; 0 to 100 scale where 0 is no effect and 100 is complete control; read-out: Rice plant response rating
Method in brief: as §2

[9] = test system: sedge, umbrella (small-flower umbrella sedge, Cyperus difformis); assay: Test B flooded paddy test; conditions: Cyperus difformis, 250 g ai/ha, Flood; 0 to 100 scale where 0 is no effect and 100 is complete control; read-out: Sedge, Umbrella plant response rating
Method in brief: as §2

corn (Zea mays) = assay: Test A postemergence; conditions: Zea mays, post-emergence, 240 h, Postemergence, read-out: Corn plant response rating (0 to 100 scale)
Method in brief: as §1

[10] = test system: ryegrass, Italian (Italian ryegrass, Lolium multiflorum); assay: Test A postemergence; conditions: Lolium multiflorum, post-emergence, 240 h, Postemergence, read-out: Ryegrass, Italian plant response rating (0 to 100 scale)
Method in brief: as §1

[11] = test system: pigweed (Amaranthus retroflexus); assay: Test A postemergence; conditions: Amaranthus retroflexus, post-emergence, 240 h, Postemergence, read-out: Pigweed plant response rating (0 to 100 scale)
Method in brief: as §1

Kochia (Kochia scoparia) [12] = assay: Test A postemergence; conditions: Bassia scoparia, post-emergence, 240 h, Postemergence, read-out: Kochia plant response rating (0 to 100 scale)
Method in brief: as §1

[13] = test system: ragweed (common ragweed, Ambrosia elatior); assay: Test A postemergence; conditions: Ambrosia artemisiifolia, post-emergence, 240 h, Postemergence, read-out: Ragweed plant response rating (0 to 100 scale)
Method in brief: as §1

[14] = test system: giant foxtail (Setaria faberii); assay: Test A postemergence; conditions: Setaria faberi, post-emergence, 240 h, Postemergence, read-out: Foxtail, Giant plant response rating (0 to 100 scale)
Method in brief: as §1

[15] = test system: blackgrass (Alopecurus myosuroides); assay: Test A postemergence; conditions: Alopecurus myosuroides, post-emergence, 240 h, Postemergence, read-out: Blackgrass plant response rating (0 to 100 scale)
Method in brief: as §1

[16] = test system: barnyardgrass (Echinochloa crus-galli); assay: Test A postemergence; conditions: Echinochloa crus-galli, post-emergence, 240 h, Postemergence
Method in brief: as §1

[17] = test system: wheat (Triticum aestivum); assay: Test A postemergence; conditions: Triticum aestivum, post-emergence, 240 h, Postemergence, read-out: Wheat plant response rating (0 to 100 scale)
Method in brief: as §1

[18] = test system: Galium (catchweed bedstraw, Galium aparine); assay: Test A postemergence; conditions: Galium, post-emergence, 240 h, Postemergence, read-out: Galium plant response rating (0 to 100 scale)
Method in brief: as §1

[19] = 125 g ai/ha, preemergence, visual injury rating, approximately 10 d
[20] = 125 g ai/ha, visual rating about 10 d after treatment
[21] = 31 g ai/ha, 0 is no effect, 100 is complete control

SMILES: O=C(Nc1ccccc1F)C1C(=O)N(CC(F)F)CC1c1cccc(C(F)(F)F)c1 (stereo not drawn) [Compound 1293]
- pest or weed control at 31 g/ha ([1]; 31 g ai/ha, Preemergence): 0%
- pest or weed control at 125 g/ha [1, 19]: 0%
- pest or weed control at 31 g/ha ([2]; 31 g ai/ha, Preemergence): 0%
- pest or weed control at 125 g/ha [2, 19]: 0%
- pest or weed control at 31 g/ha (Kochia (Kochia scoparia) [3]; 31 g ai/ha, Preemergence): 0%
- pest or weed control at 125 g/ha (Kochia (Kochia scoparia) [3]; [19]): 0%
- pest or weed control at 31 g/ha ([4]; 31 g ai/ha, Preemergence): 0%
- pest or weed control at 125 g/ha [4, 19]: 0%
- pest or weed control at 31 g/ha ([5]; 31 g ai/ha, Preemergence): 0%
- pest or weed control at 125 g/ha [5, 19]: 20%
- pest or weed control at 31 g/ha ([6]; 31 g ai/ha, Preemergence): 0%
- pest or weed control at 125 g/ha [6, 19]: 20%
- pest or weed control at 250 g/ha [7]: 0%
- pest or weed control at 250 g/ha [8]: 0%
- pest or weed control at 250 g/ha (rice (Oryra sativa)): 0%
- pest or weed control at 250 g/ha [9]: 0%
- plant injury at 125 g/ha (corn (Zea mays); [20]): 0%
- plant injury at 31 g/ha (corn (Zea mays); [21]): 0%
- pest or weed control at 125 g/ha [10, 20]: 0%
- pest or weed control at 31 g/ha [10, 21]: 0%
- pest or weed control at 125 g/ha [11, 20]: 0%
- pest or weed control at 31 g/ha [11, 21]: 0%
- pest or weed control at 125 g/ha (Kochia (Kochia scoparia) [12]; [20]): 0%
- pest or weed control at 31 g/ha (Kochia (Kochia scoparia) [12]; [21]): 0%
- pest or weed control at 125 g/ha [13, 20]: 0%
- pest or weed control at 31 g/ha [13, 21]: 0%
- pest or weed control at 125 g/ha [14, 20]: 0%
- pest or weed control at 31 g/ha [14, 21]: 0%
- pest or weed control at 125 g/ha [15, 20]: 0%
- pest or weed control at 31 g/ha [15, 21]: 0%
- pest or weed control at 125 g/ha ([16]; 125 g ai/ha, visual rating about 10 d after treatment, read-out: Barnyardgrass plant response rating (0 to 100 scale, 0 no effect, 100 complete control)): 20%
- pest or weed control at 31 g/ha ([16]; 31 g ai/ha, 0 is no effect, 100 is complete control, read-out: Barnyardgrass plant response rating (0 to 100 scale)): 0%
- plant injury at 125 g/ha [17, 20]: 0%
- plant injury at 31 g/ha [17, 21]: 0%
- pest or weed control at 125 g/ha [18, 20]: 0%
- pest or weed control at 31 g/ha [18, 21]: 0%
